{
  "source": "patent US12343350B2",
  "about": "“Istaroxime-containing intravenous formulation for the treatment of acute heart failure (AHF)” (Windtree Therapeutics, Inc., priority 2019, dated 2025)",
  "key": {"[1]": {"biological_target": "dog renal Na,K-ATPase (Canis lupus familiaris (Dog) (Canis familiaris), UniProt P50997)", "experiment": "Inhibition of dog renal Na,K-ATPase activity (32P-ATP)", "assay_type": "biochemical", "description": "Kidneys were sliced and the outer medulla was dissected, pooled and suspended (1 g/10 ml) in a sucrose-histidine solution, containing 250 mM sucrose, 30 mM histidine and 5 mM EDTA, pH 7.2 and homogenized. The homogenate was centrifuged at 6.000 g for 15 min, the supernatant was decanted and centrifuged at 48.000 g for 30 min. The pellet was suspended in the sucrose-histidine buffer and incubated for 20 min with a sodium-dodecyl-sulphate (SDS) solution dissolved in a gradient buffer, containing 25 mM imidazole and 1 mM EDTA, pH 7.5. […] The pellet was suspended in the gradient buffer.\nIncreasing concentrations of the standard ouabain, or tested compound, were incubated with 0.3 μg of purified dog kidney enzyme for 10 min at 37° C. in 120 μl final volume of a medium containing 140 mM NaCl, 3 mM MgCl2, 50 mM Hepes-Tris, 3 mM ATP at a pH 7.5. Then, 10 μl of incubation solution containing 10 mM KCl and 20 nCi of ^32P-ATP (3-10 Ci/mmol, Perkin Elmer) was added, and the reaction was continued for 15 min at 37° C. The reaction was then stopped by acidification with 20% v/v ice-cold perchloric acid. ^32P was separated by centrifugation with activated Charcoal (Norit A, Serva) and the radioactivity was measured. The inhibitory activity was expressed as percent of the control samples carried out in the absence of ouabain or tested compound."}, "[2]": {"tested_on": "SERCA2a", "conditions": "previous studies; cited from earlier work"}, "[3]": {"conditions": "death due mainly to arrhythmias; cited from earlier work"}, "[4]": {"biological_target": "SERCA2a (Canis lupus familiaris (Dog) (Canis familiaris), UniProt O46674)", "sequence (O46674 whole entry)": "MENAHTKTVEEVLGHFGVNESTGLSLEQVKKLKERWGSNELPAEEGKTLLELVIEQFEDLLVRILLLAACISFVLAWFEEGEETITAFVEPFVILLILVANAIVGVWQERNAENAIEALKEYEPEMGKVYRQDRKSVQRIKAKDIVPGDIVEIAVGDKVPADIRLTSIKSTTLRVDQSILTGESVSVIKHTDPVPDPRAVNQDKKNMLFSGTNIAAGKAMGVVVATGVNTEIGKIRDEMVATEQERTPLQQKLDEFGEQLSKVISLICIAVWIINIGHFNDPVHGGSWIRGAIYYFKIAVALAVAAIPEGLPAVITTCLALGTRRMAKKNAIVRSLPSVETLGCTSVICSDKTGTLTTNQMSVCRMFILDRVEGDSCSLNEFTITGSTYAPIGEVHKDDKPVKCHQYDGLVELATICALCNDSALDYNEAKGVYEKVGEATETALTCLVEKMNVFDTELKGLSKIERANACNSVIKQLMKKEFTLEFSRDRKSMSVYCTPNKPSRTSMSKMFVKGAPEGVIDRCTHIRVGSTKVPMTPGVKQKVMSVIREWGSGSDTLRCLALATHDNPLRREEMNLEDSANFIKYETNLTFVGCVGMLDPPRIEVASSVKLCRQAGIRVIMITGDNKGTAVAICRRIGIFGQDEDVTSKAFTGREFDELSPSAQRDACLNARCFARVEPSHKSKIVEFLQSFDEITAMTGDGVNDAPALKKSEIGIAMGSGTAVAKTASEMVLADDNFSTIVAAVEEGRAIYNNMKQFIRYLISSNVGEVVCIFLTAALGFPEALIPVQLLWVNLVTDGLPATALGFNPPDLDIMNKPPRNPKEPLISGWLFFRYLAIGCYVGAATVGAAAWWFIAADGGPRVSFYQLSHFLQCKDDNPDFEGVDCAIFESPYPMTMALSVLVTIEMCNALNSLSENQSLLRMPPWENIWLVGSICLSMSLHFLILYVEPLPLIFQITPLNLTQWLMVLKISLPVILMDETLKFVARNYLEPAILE", "experiment": "SERCA2a ATPase activity in heart-derived SR microsomes from normal dog", "assay_type": "biochemical", "conditions": "normal dog SR microsomes", "description": "Male beagle dogs were used for obtaining cardiac tissues for SERCA2a-enriched sarcoplasmic reticulum preparations. Healthy dogs were utilized for obtaining the data in Table 3. Chronic heart failure was induced in dogs by multiple intracoronary microembolizations with polystyrene latex microspheres ([…], Polysciences, Warrington, PA, USA) as described previously (see Sabbah H N et al., Am J Physiol. 1991; 260:H1379-84). The experiments were conducted in the General Pharmacology Department of Sigma-Tau, Rome, Italy.\nLeft ventricle tissues were dissected, homogenized in 4 volumes of 10 mM NaHCO3 (pH 7), 1 mM PMSF, 10 μg/ml Aprotinin and Leupeptin and centrifuged at 12.000 g for 15 minutes, as described in Nediani C. et al. (J Biol Chem. 1996; 271:19066-73). Supernatants were filtered and centrifuged at 100.000 g for 30 min. Contractile proteins were extracted by suspending the pellets with 0.6 M KCl, 30 mM Histidine, pH 7 and further centrifugation at 100.000 g for 30 min. Final pellets were reconstituted with 0.3 M Sucrose, 30 mM Histidine, pH 7.\nSERCA2a activity was measured in vitro as ^32P-ATP hydrolysis at different Ca2^+ concentrations (100 to 3000 nM) in the absence and presence of the tested compounds as described previously (see Micheletti R. et al., Am J Card 2007; 99:24A-32A). Increasing concentrations of each compound (from 0.05 to 300 nM) were pre-incubated with 2 μg of microsomes for 5 min at 4° C. in 80 μl of a solution containing 100 mM KCl, 5 mM MgCl2, 1 μM A23187, 20 mM Tris, pH 7.5. Then, 20 μl of 5 mM Tris-ATP containing 50 nCi of ^32P-ATP (3-10 Ci/mmol, Perkin Elmer) was added. The ATP hydrolysis was continued for 15 min at 37° C. and was stopped by acidification with 100 μl of 20% v/v ice-cold perchloric acid. ^32P was separated by centrifugation with activated charcoal (Norit A, SERVA) and the radioactivity was measured. SERCA2a-dependent activity was identified as the portion of total hydrolytic activity inhibited by 10 μM cyclopiazonic acid (see Seidler N W. et al., J Biol Chem. 1989; 264:17816-23).\nDose-response curves were fitted by using a sigmoidal curve fitting software and the maximal velocity (Vmax) activity and the Kd Ca2^+ were calculated (Synergy Software KaleidaGraph 3.6).\nThe compounds disclosed herein were tested on SERCA2a ATPase activity prepared from normal and failing dogs in a range of concentrations from […]. The effect has been expressed as % increase of the Vmax activity of a control sample run in the absence of compound. Data are mean & SD, where n indicates the number of experiments."}, "[5]": {"experiment": "Plasma levels of istaroxime and its metabolites in patients (HPLC-MS/MS)", "assay_type": "in vivo, human", "conditions": "24 h infusion of 0.5 or 1 μg/kg/min istaroxime, Caucasian and Chinese patients", "description": "The quantitative determination of PST 2744 and its metabolite PST 2915 in human plasma was determined by the HPLC-MS/MS method that included a mobile phase of 70:30 acetonitrile/water, 1 mL/L 1M formic acid, and 1 mL/L 5M ammonium acetate. The flow rate was 1 mL/min, and the chromatographic separation was by reversed phase HPLC (Column: SYNERGI 4μ POLAR-RP80A 150×4.6 mm equipped with a Security-guard Phenomenex Polar-RP 4×3 mm). Detection was performed by MS/MS, and the acquisition mode was Multiple Reaction Monitoring (MRM).\nThe quantitative determination of istaroxime metabolies PST 2922 and PST 3093 in human plasma was also measured by the HPLC-MS/MS method. In this case, the mobile phase was 50:50 H2 O/CH3 CN (v/v) and 500 μL/L 98-100% HCOOH. The flow rate was 1 mL/min and chromatographic separation was done by reversed-phase HPLC (Column: Phenomenex Phenyl hexyl, 150×4.6 mm, equipped with a Phenomenex phenyl propyl guard-cartridge) under isocratic conditions. Detection was performed by MS/MS (376.0→282.0 amu for PST2922, 378.0→284.0 amu for PST 3093 and 362.0→268.0 amu for PST 3418, IS)."}, "[6]": {"conditions": "stimulation of cardiac pumping ability; cited from earlier work"}},
  "note": "pIC50: −log10 of the molar value. Structures can show the parent of a compound that is named as a salt. Where two headings read alike, the source gives them in different places. Marks after values point to notes of the source that are not given here.",
  "data": [
    {"compound": "C[C@H]1O[C@@H](O[C@H]2[C@@H](O)C[C@H](O[C@H]3[C@@H](O)C[C@H](O[C@H]4CC[C@@]5(C)[C@H](CC[C@@H]6[C@@H]5C[C@@H](O)[C@]5(C)[C@@H](C7=CC(=O)OC7)CC[C@]65O)C4)O[C@@H]3C)O[C@@H]2C)C[C@H](O)[C@@H]1O", "note": "[Digoxin]", "values": [
      {"measurement": "pIC50", "setting": "[1]; purified dog kidney enzyme, 37° C., read-out: IC50, inhibition of dog renal Na,K-ATPase", "result": 6.74},
      {"measurement": "SERCA2a activity stimulation", "setting": "[2]", "result": "failed to stimulate"},
      {"measurement": "serum concentration threshold above which increased risk of death", "setting": "[3]", "result": 0.9, "unit": "ng/mL"}
    ]},
    {"compound": "C[C@]12CCC(=NOCCN)CC1[C@H](O)CC1C2CC[C@]2(C)C(=O)CCC12", "note": "(stereo partly drawn) [PST 2915, (E,Z)-3-(2-Aminoethoxyimino)-6beta-hydroxyandrostan-17-one hydrochloride]", "values": [
      {"measurement": "pIC50", "setting": "[1]", "result": 5.68},
      {"measurement": "% increase vs control (Vmax)", "setting": "[4]; 0.1 nM compound", "result": 11, "unit": "%"},
      {"measurement": "% increase vs control (Vmax)", "setting": "[4]; 10 nM compound", "result": "16* %"},
      {"measurement": "plasma concentration course during the infusion period", "setting": "[5]", "result": "continue to accumulate"}
    ]},
    {"compound": "COC(=O)N1CCN(Cc2cccc(NC(=O)Nc3ccc(C)nc3)c2F)CC1", "note": "[omecamtiv]", "values": [
      {"measurement": "plasma levels of Hs TnT", "setting": "[6]", "result": "associated with an increase"}
    ]}
  ]
}
